Results from patent US20090076029A1 (Palatin Technologies, Inc., priority 2007, published 2009).
Entries after “also recorded” stand apart in the source; their conditions may differ. Read-outs that look alike come from different tables or passages of the source.

Assays:
hMC3-R [1] = target: T1, hMC3-R; assay: Competitive inhibition assay using [I125]-NDP-α-MSH, hMC3-R membranes; format: binding, human; conditions: for Ki: read-out: Ki (nM) (NDP-α-MSH) MC3-R
T1 construct: expressed in transfected cells; host or cells: HEK-293
Outline: (§1)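 Single-concentration displacement (usually 1 μM compound) of 0.2–0.4 nM [125I]-NDP-α-MSH, run 90 min at room temperature in pH 7.2 HEPES containing MgCl2, CaCl2 and KCl. Receptor sources: transfected HEK-293 membranes for human MC3-R/MC4-R/MC5-R, B-16 mouse melanoma membranes for MC1-R. Bound counts normalised to 1 μM α-MSH-defined specific binding; triplicates averaged, values below 0% set to 0%.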

hMC3-R [2] = system: T1, hMC3-R; assay: cAMP functional assay, HEK-293 cells expressing hMC3-R; format: cell-based, human; conditions: cAMP assay at 1 μM
Method: (§2) General method for EC50 determination in functional activity assay. Functional evaluation of compounds at melanocortin receptors was performed by measuring the accumulation of intracellular cAMP in HEK-293 cells expressing hMC3-R, hMC4-R or hMC5-R, and in B-16 mouse melanoma cells expressing MC1-R. Cells suspended in Earle's Balanced Salt Solution containing 10 mM HEPES (pH 7.5), 5 mM MgCl2, 1 mM glutamine, 0.1% albumin and 0.6 mM 3-isobutyl-1-methyl-xanthine, a phosphodiesterase inhibitor, were plated in 96 well plates at a density of 0.5×10^5 cells per well. Cells were incubated with the test compounds in the presence or absence of α-MSH for 1 hour at 37° C. cAMP levels in the cell lysates were measured using an EIA kit (Amersham). Data analysis and EC50 values were determined using nonlinear regression analysis with Prism Graph-Pad software.
(§3) Functional status. The agonist/antagonist status with respect to MC1-R, MC-3R, MC4-R and MC5-R of certain compounds of the invention was determined.

hMC5-R [3] = target: T2, hMC5-R; assay: Competitive inhibition assay using [I125]-NDP-α-MSH, hMC5-R membranes; format: binding, human; conditions: for Ki: read-out: Ki (nM) (NDP-α-MSH) MC5-R
T2 construct: expressed in transfected cells; host or cells: HEK-293
Outline: as §1

hMC4-R [4] = system: T3, hMC4-R; format: binding, human; conditions: for Inhibition at 1 μM (AgRP) MC4-R: 1 μM compound
T3 construct: expressed in transfected cells; host or cells: HEK-293
Outline: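 Membranes from hMC4-R-expressing cells incubated 1 h at 37 °C with 0.2 nM [I^125]-AgRP (83-132) and increasing compound in 25 mM HEPES pH 7.5, 100 mM NaCl, 2 mM CaCl2, 2 mM MgCl2, 0.3 mM 1,10-phenanthroline, 0.5% BSA. Filtration, gamma counting; specific binding kept ≤10% of added counts.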

MC1-R [5] = system: T4, MC1-R; assay: cAMP functional assay, B-16 mouse melanoma cells expressing MC1-R; format: cell-based; conditions: cAMP assay at 1 μM
T4 construct: from B-16 mouse melanoma cells (containing MC1-R); endogenous in cells; host or cells: B-16 mouse melanoma cells
Method: as §2, §3

hMC4-R [6] = target: T3, hMC4-R; assay: Competitive inhibition assay using [I125]-NDP-α-MSH, hMC4-R membranes; format: binding, human; conditions: for attenuation of binding of α-MSH and AgRP to MC4-R: both ligands (NDP-α-MSH and AgRP), summary
MC1-R [7] = target: T5, MC1-R; assay: Competitive inhibition assay using [I125]-NDP-α-MSH, MC1-R membranes; format: binding, mouse; conditions: for Inhibition at 1 μM (NDP-α-MSH) MC1-R: 1 μM compound
T5 construct: other: 1 μM compound

hMC5-R [8] = system: T2, hMC5-R; assay: cAMP functional assay, HEK-293 cells expressing hMC5-R; format: cell-based, human; conditions: cAMP assay at 1 μM
Method: as §2, §3

hMC4-R [9] = system: T3, hMC4-R; assay: cAMP functional assay in HEK-293 cells expressing MC4-R (agonist, neutral antagonist/Schild); format: cell-based, human; conditions: for intrinsic activity at MC4-R: NDP-α-MSH maximal stimulation = 1.0; for functional status at MC4-R: mostly at 1 μM
Outline: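 Cells in EBSS/HEPES pH 7.5 with 0.3 mM IBMX, exposed to compound (0.05-5000 nM, 1% DMSO) for 1 h at 37 °C; cAMP by EIA, EC50 by nonlinear regression. Antagonism: 30 min compound pre-incubation, then 1 nM NDP-α-MSH for 1 h; Schild analysis over 0.005-5000 nM agonist gives pA2.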

[10] = MC4-R membranes, Table 1, read-out: Ki (nM) I125-AgRP
[11] = MC4-R membranes, Table 1, read-out: Ki (nM) I125-NPD-α-MSH
[12] = read-out: Ki (nM) (NDP-α-MSH) MC4-R
[13] = cAMP assay, read-out: EC50 (nM) at MC4-R

| SMILES | Ki (hMC3-R [1]) [nM] | functional status at MC3-R (hMC3-R [2]) | Ki (hMC5-R [3]) [nM] | Inhibition at 1 μM (AgRP) MC4-R (hMC4-R [4]) [%] | Ki (hMC4-R [4]; [10]) [nM] | Ki (hMC4-R [4]; read-out: Ki (nM) (AgRP) MC4-R) | functional status at MC1-R (MC1-R [5]) | Ki (hMC4-R [6]; [11]) [nM] | attenuation of binding of α-MSH and AgRP to MC4-R (hMC4-R [6]) | Ki (hMC4-R [6]; [12]) [nM] | Ki (MC1-R [7]) [nM] | Inhibition at 1 μM (NDP-α-MSH) MC1-R (MC1-R [7]) [%] | functional status at MC5-R (hMC5-R [8]) | functional status (pAg, Ag, Antag, Inactive) (hMC4-R [9]; MC4-R, Table 1) | EC50 (hMC4-R [9]; MC4-R, Table 1, read-out: EC50) [nM] | intrinsic activity at MC4-R (hMC4-R [9]) | EC50 (hMC4-R [9]; [13]) [nM] | functional status at MC4-R (hMC4-R [9]; cAMP assay) | also measured |
| --- | --- | --- | --- | --- | --- | --- | --- | --- | --- | --- | --- | --- | --- | --- | --- | --- | --- | --- | --- |
| C[C@@H]1CN(C(=O)[C@H](N)Cc2ccc3ccccc3c2)[C@@H](CCCNC(=N)N)CN1C(=O)CCCc1c[nH]c2ccccc12 [Example 7] | 657 | no intrinsic activity (intrinsic activity below 0.1 (10%) is classified as inactive or having no intrinsic activity) | 271 | 82 | 133 | 133 | no intrinsic activity (intrinsic activity below 0.1 (10%) is classified as inactive or having no intrinsic activity) | 90 | attenuate the binding of both α-MSH and AgRP to MC4-R | 90 | 1200 | 0 | no intrinsic activity (intrinsic activity below 0.1 (10%) is classified as inactive or having no intrinsic activity) | pAg (“pAg” means partial agonist) | 3800 | 0.4 | > 3000 | – | – |
| C[C@@H]1CN(C(=O)[C@H](N)Cc2ccc3ccccc3c2)[C@@H](CCCNC(=N)N)CN1CCc1c[nH]c2ccccc12 [Example 8, N-(3-{1-(2(R)-Amino-3-naphthalen-2-yl-propionyl)-4-[2-(1H-indol-3-yl)-ethyl]-5(R)-methyl-piperazin-2(S)-yl}-propyl)-guanidine] | 2120 | no intrinsic activity (intrinsic activity below 0.1 (10%) is classified as inactive or having no intrinsic activity) | 808 | 89 | 56 | 56 | no intrinsic activity (intrinsic activity below 0.1 (10%) is classified as inactive or having no intrinsic activity) | 37 | attenuate the binding of both α-MSH and AgRP to MC4-R | 37 | 162 | 2 | no intrinsic activity (intrinsic activity below 0.1 (10%) is classified as inactive or having no intrinsic activity) | Ag | > 1000 | 0.9 | > 100 | full agonist | Inhibition at 1 μM (NDP-α-MSH) MC3-R (hMC3-R [1]; 1 μM compound): 27%; Inhibition at 1 μM (NDP-α-MSH) MC5-R (hMC5-R [3]; 1 μM compound): 51%; Inhibition at 1 μM (NDP-α-MSH) MC4-R (hMC4-R [6]; 1 μM compound): 93% |
| Cc1[nH]c2ccccc2c1CCN1C[C@H](CCCNC(=N)N)N(C(=O)[C@H](N)Cc2ccc3ccccc3c2)C[C@H]1C [Example 9, N-(3-{1-(2(R)-Amino-3-naphthalen-2-yl-propionyl)-5(R)-methyl-4-[2-(2-methyl-1H-indol-3-yl)-ethyl]-piperazin-2(S)-yl}-propyl)-guanidine] | 451 | no intrinsic activity (intrinsic activity below 0.1 (10%) is classified as inactive or having no intrinsic activity) | 293 | 92 | 35 | 35 | partial agonist (intrinsic activity between 0.1 (10%) and 0.7 (70%) is classified as a partial agonist) | 26 | attenuate the binding of both α-MSH and AgRP to MC4-R | 26 | 148 | 73 | agonist (intrinsic activity of 0.7 (70%) or higher is classified as an agonist) | Ag | 384 | 0.9 | > 384 | agonist (intrinsic activity of 0.7 (70%) or higher is classified as an agonist) | – |
| Cc1cc(Cl)ccc1C[C@@H](N)C(=O)N1C[C@@H](C)N(CCc2c[nH]c3ccccc23)C[C@@H]1CCCNC(=N)N [Example 10, N-(3-{1-(2(R)-Amino-(4-chloro-2-methyl-phenyl)-propionyl)-5(R)-methyl-4-[2-(1H-indol-3-yl)-ethyl]-piperazin-2(S)-yl}-propyl)-guanidine] | 177 | no intrinsic activity (intrinsic activity below 0.1 (10%) is classified as inactive or having no intrinsic activity) | 360 | 97 | 5 | 5 | no intrinsic activity (intrinsic activity below 0.1 (10%) is classified as inactive or having no intrinsic activity) | 5 | attenuate the binding of both α-MSH and AgRP to MC4-R | 5 | 1730 | 40 | no intrinsic activity (intrinsic activity below 0.1 (10%) is classified as inactive or having no intrinsic activity) | pAg (“pAg” means partial agonist) | 7 | 1 | > 7 | partial agonists; also recorded: full agonist | – |
| Cc1cc(Cl)ccc1C[C@@H](N)C(=O)N1C[C@@H](C)N(C(=O)Cc2ccc3ccccc3c2)C[C@@H]1CCCNC(=N)N [Example 11, N-{3-[1-[2(R)-amino-3-(4-chloro-2-dimethyl-phenyl)-propionyl]-5(R)-methyl-4-(2-naphthalen-2-yl-acetyl)-piperazin-2(S)-yl]-propyl}-guanidine] | 398 | partial agonist (intrinsic activity between 0.1 (10%) and 0.7 (70%) is classified as a partial agonist) | 774 | 89 | 27 | 27 | partial agonist (intrinsic activity between 0.1 (10%) and 0.7 (70%) is classified as a partial agonist) | 3 | attenuate the binding of both α-MSH and AgRP to MC4-R | 3 | 462 | 3 | agonist (intrinsic activity of 0.7 (70%) or higher is classified as an agonist) | Ag | 18 | 0.9 | 18 | agonist (intrinsic activity of 0.7 (70%) or higher is classified as an agonist) | – |
